Patent US20200087340A1, “LIF/LIFR ANTAGONIST IN ONCOLOGY AND NONMALIGNANT DISEASES” (Evestra, Inc., priority 2018, published 2020)
Entries after “also recorded” stand apart in the source; their conditions may differ.

Assays:
Microsomal stability [1] = assay type: in vitro ADME; settings: Dog
[2] = test system: various cancer cells lines; experiment: Cytotoxicity assays in various cancer cell lines; assay type: cell-based
Microsomal stability [3] = assay type: in vitro ADME; settings: Human
Hepatocyte stability [4] = assay type: in vitro ADME; settings: Rat
Mug-Chor cells = experiment: 48 hours MTT cell proliferation assay, chordoma; assay type: cell-based
Experimental: (§1) EC359 was tested two chormoma cell lines (Mug-Chor and U-CH1) for cell viability in 48 hours MTT cell proliferation assay.

U-CH1 = experiment: 48 hours MTT cell proliferation assay, chordoma; assay type: cell-based; settings: UCH1; U-CH1, 48 hours MTT
Experimental: as §1

Plasma stability [5] = assay type: in vitro ADME; settings: Mouse
[6] = test system: ID-8 ovarian syngeneic tumor; experiment: ID-8 ovarian syngeneic murine tumor model
Description: CD3+T cells: T cell co-receptor helps to activate both the cytotoxic T cell (CD8+ naive T cells) and also T helper cells (CD4+ naive T cells). • 2. Tumor infiltrating leukocytes • 3. CD19 is widely expressed during all phases of B cell development until terminal differentiation into plasma cells. • 4. […] M1 macrophages: produced along with inflammatory reaction. […] CD8-positive T cells: are a critical subpopulation of MEW class I-restricted T cell and are mediators of adaptive immunity.

Plasma stability [7] = assay type: in vitro ADME; settings: Dog
hERG = target: T1, hERG (Homo sapiens, UniProt Q12809); experiment: Off-target binding study (CEREP screen); settings: no binding up to, read-out: IC 50 of binding, hERG
T1 construct: CEREP (contract screen, per earlier reading)
T1 sequence (Q12809 whole entry): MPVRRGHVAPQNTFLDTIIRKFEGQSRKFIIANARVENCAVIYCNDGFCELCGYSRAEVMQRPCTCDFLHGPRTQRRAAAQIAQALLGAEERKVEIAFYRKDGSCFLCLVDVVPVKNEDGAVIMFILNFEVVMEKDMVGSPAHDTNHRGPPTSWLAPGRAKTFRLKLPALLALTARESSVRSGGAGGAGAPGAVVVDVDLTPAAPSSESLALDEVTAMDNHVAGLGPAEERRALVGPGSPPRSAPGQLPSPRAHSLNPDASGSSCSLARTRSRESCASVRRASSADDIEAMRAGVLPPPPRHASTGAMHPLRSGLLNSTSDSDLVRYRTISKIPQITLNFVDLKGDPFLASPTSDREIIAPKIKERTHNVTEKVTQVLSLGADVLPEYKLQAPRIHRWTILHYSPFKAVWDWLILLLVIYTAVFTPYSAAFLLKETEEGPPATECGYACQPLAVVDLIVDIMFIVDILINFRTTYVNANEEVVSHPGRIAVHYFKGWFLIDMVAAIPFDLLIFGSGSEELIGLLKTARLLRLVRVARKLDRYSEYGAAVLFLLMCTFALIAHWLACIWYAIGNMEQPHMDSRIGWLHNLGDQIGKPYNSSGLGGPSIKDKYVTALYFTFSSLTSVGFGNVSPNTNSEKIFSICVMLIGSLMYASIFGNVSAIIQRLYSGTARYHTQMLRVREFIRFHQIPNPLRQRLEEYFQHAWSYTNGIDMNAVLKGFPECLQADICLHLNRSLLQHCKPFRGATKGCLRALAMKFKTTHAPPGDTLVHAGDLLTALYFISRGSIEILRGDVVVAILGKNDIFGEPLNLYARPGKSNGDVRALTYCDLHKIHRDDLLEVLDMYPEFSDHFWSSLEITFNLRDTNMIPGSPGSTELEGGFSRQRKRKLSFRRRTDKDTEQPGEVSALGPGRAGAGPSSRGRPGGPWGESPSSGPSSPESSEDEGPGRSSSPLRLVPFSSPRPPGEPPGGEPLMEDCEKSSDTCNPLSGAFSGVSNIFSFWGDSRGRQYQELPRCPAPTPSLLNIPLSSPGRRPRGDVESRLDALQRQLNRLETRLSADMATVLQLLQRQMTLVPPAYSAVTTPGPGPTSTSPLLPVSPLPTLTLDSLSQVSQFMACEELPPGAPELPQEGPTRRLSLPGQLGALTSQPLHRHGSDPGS

cancer cells = experiment: Colony formation in soft agar (EC359); assay type: cell-based
Hepatocyte stability [8] = assay type: in vitro ADME; settings: Dog
[9] = Metabolite identification; assay type: in vitro ADME
Hepatocyte stability [10] = assay type: in vitro ADME; settings: Human
PK study in Mouse = assay type: in vivo
Single dose MTD = assay type: in vivo; settings: 10, 25, 50 and 100 mg/kg
Hepatocyte stability [11] = assay type: in vitro ADME; settings: Mouse
[12] = test system: High trans-fat fructose diet induced liver fibrosis; experiment: High fat diet (HFD) induced liver fibrosis in rats; assay type: in vivo, rat
Microsomal stability [13] = assay type: in vitro ADME; settings: Rat
[14] = test system: Cytochrome P450 (1A2, 2C9, 2C19, 2D6, 3A4); experiment: CYP inhibition using human liver microsomes; assay type: in vitro ADME; settings: human liver microsomes (1A2, 2C9, 2C19, 2D6, 3A4)
[15] = test system: cancer-associated fibroblasts (CAFs), alpha-SMA; experiment: Cytoskeletal disruption / cancer-associated fibroblasts; assay type: cell-based
MM51 = experiment: Murine syngeneic MM51 model; assay type: in vivo; settings: 1 and 5 mg/kg
Description: (§2) . Blockade of LIF-LIFR interaction reduced the STAT3 phosphorylation, mTOR and further downstream signaling cascades. […]. Our findings establish EC359 as a novel LIF/LIFR targeting drug with therapeutic perspectives for patients with advanced primary tumors. LIF/LIFR targeting may result in the blockade of JAK-STAT signaling pathway as well as cancer fibroblast associated pro invasive tumor microenvironment in regular as well as therapy resistant tumors

Microsomal stability [16] = assay type: in vitro ADME; settings: Mouse
[17] = test system: FC 1295 and imPSCc-2 organoids; experiment: Pancreatic cancer / stellate cell line derived organoid system; assay type: cell-based, Murine
Experimental: Most solid tumors have extensive stroma that not only facilitates the tumor progression but also impedes the delivery of the chemotherapeutic agents. Due to lack of any in-vitro system, presently it is difficult to evaluate any stroma-targeted therapies. Therefore, we developed an organoid system using labeled pancreatic cancer and stellate cell lines. Murine (FC 1295 and […]-2) cell lines cultured in different combinations were grown as an organoid system using matrigel. The organoids, starting day four were treated with either gemcitabine or EC359, a novel mifepristone derived steroidal cytotoxic agent that targets tumor stroma, or both in combination. qRT-PCR analysis of activated stroma signature genes was performed on the mRNA isolated from different treatment groups. H&E, immunohistochemistry, and western blot analysis were performed to further validate our findings. […] Our novel cell line derived organoid model can be utilized for fast, and inexpensive evaluation of stroma-targeted therapies.

LIF = LIF (Homo sapiens, UniProt P15018); experiment: biochemical
Chain of LIF (P15018 23-202): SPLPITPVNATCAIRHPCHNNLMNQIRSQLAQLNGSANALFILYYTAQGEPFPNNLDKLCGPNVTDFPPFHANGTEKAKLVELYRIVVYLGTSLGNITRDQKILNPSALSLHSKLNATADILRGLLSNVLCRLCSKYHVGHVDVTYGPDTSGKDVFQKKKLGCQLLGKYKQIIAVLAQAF

Plasma protein binding [18] = assay type: in vitro ADME; settings: dog
TNBC xenograft = TNBC xenograft (EC359); assay type: in vivo; settings: 1 and 5 mg/kg
Description: as §2

[19] = test system: S. typhimurium TA98, TA100, TA1535 and E. coli WP2 uvrA + E. coli WP2[pKM101] strains; experiment: Mutagenicity testing
Plasma stability [20] = assay type: in vitro ADME; settings: Rat
Caco2 = experiment: Caco2-permeability & efflux transporter substrate activity; assay type: in vitro ADME
Plasma protein binding [21] = assay type: in vitro ADME; settings: human
GR = target: T2, GR (Homo sapiens, UniProt P04150); experiment: Off-target binding study (CEREP screen); settings: no binding up to, read-out: IC 50 of binding, GR
T2 construct: CEREP (contract screen, per earlier reading)
T2 sequence (P04150 whole entry): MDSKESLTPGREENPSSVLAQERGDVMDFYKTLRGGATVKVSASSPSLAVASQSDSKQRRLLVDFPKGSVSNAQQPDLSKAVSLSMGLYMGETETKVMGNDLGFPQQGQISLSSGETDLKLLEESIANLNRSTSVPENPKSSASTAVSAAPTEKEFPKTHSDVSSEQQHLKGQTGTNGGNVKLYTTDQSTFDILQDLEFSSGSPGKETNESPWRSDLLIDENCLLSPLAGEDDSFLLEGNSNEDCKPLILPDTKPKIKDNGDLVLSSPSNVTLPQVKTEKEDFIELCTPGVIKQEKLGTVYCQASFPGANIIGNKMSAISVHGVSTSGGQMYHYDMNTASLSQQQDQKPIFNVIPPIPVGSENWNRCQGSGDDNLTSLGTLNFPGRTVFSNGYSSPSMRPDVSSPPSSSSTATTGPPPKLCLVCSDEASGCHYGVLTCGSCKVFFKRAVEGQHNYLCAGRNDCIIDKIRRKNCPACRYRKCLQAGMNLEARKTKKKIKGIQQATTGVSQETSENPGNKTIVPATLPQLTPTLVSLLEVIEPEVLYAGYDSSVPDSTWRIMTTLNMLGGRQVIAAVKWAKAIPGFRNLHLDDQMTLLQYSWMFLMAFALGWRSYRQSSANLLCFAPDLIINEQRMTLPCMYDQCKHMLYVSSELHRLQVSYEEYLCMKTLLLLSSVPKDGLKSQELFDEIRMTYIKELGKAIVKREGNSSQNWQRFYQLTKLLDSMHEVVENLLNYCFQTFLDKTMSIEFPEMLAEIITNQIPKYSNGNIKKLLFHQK

Plasma stability [22] = assay type: in vitro ADME; settings: Human
[23] = test system: breast and ovarian cancer cells; experiment: Combination with HDAC inhibitor, colony formation; assay type: cell-based
Description: Therapy resistance is a major hurdle in cancer chemo/targeted therapy. The role of LIF/LIFR signaling in inducing stemness and hypoxia is well established in different cancers. […] FIG. 16A depicts colony formation of cancer cells under various conditions. […] FIG. 16B depicts the effect of EC359 alone and in combination with SAHA on STAT 3 phosphorylation. FIG. 16C depicts the effect of EC359 alone and in combination with SAHA on induced apoptosis. FIGS. 17A and 17B depicts the effect of EC359 alone and in combination with SAHA on the growth of TNBC patient derived tumors. […] The combination of EC359 and SAHA provided a greater reduction than either […] alone.

Plasma protein binding [24] = assay type: in vitro ADME; settings: mouse
[25] = Solubility: pION, kinetic, thermodynamic; assay type: physicochemical
hERG membrane = hERG membrane (Homo sapiens, UniProt Q12809); experiment: Cardiotoxicity assessment (hERG), fluorescence polarization assay; assay type: binding
Chain of hERG membrane (Q12809 whole entry): as the sequence (Q12809 whole entry) above

Plasma protein binding [26] = assay type: in vitro ADME; settings: rat
[27] = test system: triple negative breast cancer (TNBC) stem cells; experiment: TNBC stem cell inhibition; assay type: cell-based

C#CC(F)(F)[C@]1(O)CC[C@H]2[C@@H]3CCC4=CC(=O)CCC4=C3[C@@H](c3ccc(-c4c(C)cc(C)cc4C)cc3)C[C@@]21C [EC359, 17α-(1,1-difluoro-2-propyn-1-yl)-17β-hydroxy-11β-[4-p-(2,4,6-trimethylphenyl)phenyl]estra-4,9-dien-3-one]
Microsomal stability (Microsomal stability [1]): Rat & Dog-low | cytotoxicity (IC50's) in cytotoxicity assays [2]: low nano-molar range | Microsomal stability (Microsomal stability [3]): Human & Mouse-moderate | Hepatocyte stability (Hepatocyte stability [4]): Rat & Dog-low | IC50 (Mug-Chor cells): 85 nM | IC50 (U-CH1): 140 nM | Plasma stability (% remaining at 60 min) (Plasma stability [5]): 104.91% | tumor specific infiltration of lymphocytes and macrophages ([6]; ID-8 Ovarian cancer model): enhanced | M1 macrophages ([6]; ID-8 model): increased | tumor specific accumulation of CD3+T, CD4+T and CD8+T cells ([6]; ID-8 model): increased | tumor burden ([6]; ID-8 ovarian syngeneic murine tumor model): significantly reduced | combination with PD-L1 treatment ([6]; ovarian cancer ID-8 syngeneic mice model): synergizes PD-L1 treatment | Plasma stability (% remaining at 60 min) (Plasma stability [7]): 105.61% | IC50 (hERG): > 30000 nM | formation of colonies in soft agar (cancer cells): blocked formation of colonies | Hepatocyte stability (Hepatocyte stability [8]): Rat & Dog-low | Major metabolic pathway [9]: Major metabolic pathway-Phase I | glucuronide metabolites ([9]; low CL in UDPGA): metabolism; No glucuronide | Hepatocyte stability (Hepatocyte stability [10]): Human & Mouse-moderate | oral bioavailability (PK study in Mouse; Mouse): Orally bioavailable | Mouse PK (p.o) (PK study in Mouse; p.o): 1.0 h | Single dose MTD (Single dose MTD): No toxicity observed | Hepatocyte stability (Hepatocyte stability [11]): Human & Mouse-moderate | liver damage (HFD induced steatohepatisis) ([12]; after 4 months of HFD, rats): significantly reduced | fibrosis, Picrosirius red staining of liver tissue ([12]; intermediary and higher dose): Fibrosis was evident | efficacy in rat models of liver fibrosis ([12]; rat models of liver fibrosis): showed efficacy | fibrosis, Picrosirius red staining of liver tissue ([12]; rats): minimal fibrosis | Microsomal stability (Microsomal stability [13]): Rat & Dog-low | CYP inhibition [14]: 2D6 inhibition | cytoskeletal disruption, targeting CAFs [15]: inhibition of alpha-SMA but not beta-tubulin | Rat PK (iv) (PK study in Rat; iv): 6 h | oral bioavailability (PK study in Rat; rat): high oral bioavailability; also recorded: Orally bioavailable | half-life (PK study in Rat; rats): long half-life | tumor burden (MM51): dose dependently reduced tumor burden | Microsomal stability (Microsomal stability [16]): Human & Mouse-moderate | expression of markers of activated stroma (western blot) [17]: reduced the expression of markers of activated stroma including alpha-SMA, and vimentin | relative reduction in GFP fluorescence ([17]; as compared to control): 46% | Kd (LIF): > 5000 nM | fraction unbound (Plasma protein binding [18]): 0.0017 | tumor burden (TNBC xenograft): dose dependently reduced tumor burden | Mutagenicity testing [19]: No mutagenicity | Plasma stability (% remaining at 60 min) (Plasma stability [20]): 108.64% | Caco2-permeability (Caco2): Low permeable | efflux transporter substrate activity (Caco2): No efflux transporter | fraction unbound (Plasma protein binding [21]): 0.0002 | IC50 (GR): > 10000 nM | Plasma stability (% remaining at 60 min) (Plasma stability [22]): 113.92% | combination with HDAC inhibitor [23]: works synergistically | fraction unbound (Plasma protein binding [24]): 0.0037 | solubility [25]: < 10 µg/mL | Cardiotoxicity assessment (hERG) (hERG membrane): No liability | fraction unbound (Plasma protein binding [26]): 0.0011 | TNBC stem cells [27]: inhibited
